Source: ChEMBL document CHEMBL4145553, “Design, synthesis, and biological evaluation of novel amide and hydrazide based thioether analogs targeting Histone deacteylase (HDAC) enzymes” (Eur J Med Chem, 2018)

Columns and labels:
Type in all cases: functional
[1] = test system: SK-MEL-5; assay: Growth inhibition of human SK-MEL-5 cells assessed as cell growth at 10^-5 M incubated for 48 hrs by sulforhodamine B assay relative to control; conditions: SK-MEL-5, 48 h, read-out: Activity
[2] = test system: NCI-H460; assay: Growth inhibition of human NCI-H460 cells assessed as cell growth at 10^-6 M incubated for 48 hrs by sulforhodamine B assay relative to control; conditions: NCI-H460, 48 h, read-out: Activity
[3] = test system: HCT-116; assay: Growth inhibition of human HCT116 cells assessed as cell growth at 10^-4 M incubated for 48 hrs by sulforhodamine B assay relative to control; conditions: HCT-116, 48 h, read-out: Activity
[4] = test system: K562; assay: Growth inhibition of human K562 cells assessed as cell growth at 10^-7 M incubated for 48 hrs by sulforhodamine B assay relative to control; conditions: K562, 48 h, read-out: Activity
[5] = test system: OVCAR-5; assay: Growth inhibition of human OVCAR5 cells assessed as cell growth at 10^-6 M incubated for 48 hrs by sulforhodamine B assay relative to control; conditions: OVCAR-5, 48 h, read-out: Activity
[6] = test system: UO-31; assay: Growth inhibition of human UO31 cells assessed as cell growth at 10^-4 M incubated for 48 hrs by sulforhodamine B assay relative to control; conditions: UO-31, 48 h, read-out: Activity
[7] = test system: Malme-3M; assay: Growth inhibition of human MALME-3M cells assessed as cell growth at 10^-6 M incubated for 48 hrs by sulforhodamine B assay relative to control; conditions: read-out: Activity
[8] = test system: NCI-H23; assay: Growth inhibition of human NCI-H23 cells assessed as cell growth at 10^-4 M incubated for 48 hrs by sulforhodamine B assay relative to control; conditions: NCI-H23, 48 h, read-out: Activity
[9] = test system: SNB-19; assay: Growth inhibition of human SNB19 cells assessed as cell growth at 10^-5 M incubated for 48 hrs by sulforhodamine B assay relative to control; conditions: SNB-19, 48 h, read-out: Activity
[10] = test system: SF-539; assay: Growth inhibition of human SF539 cells incubated for 48 hrs by sulforhodamine B assay; conditions: SF-539, 48 h
[11] = test system: MDA-MB-468; assay: Growth inhibition of human MDA-MB-468 cells incubated for 48 hrs by sulforhodamine B assay; conditions: MDA-MB-468, 48 h
[12] = test system: 786-0; assay: Growth inhibition of human 786-0 cells assessed as cell growth at 10^-7 M incubated for 48 hrs by sulforhodamine B assay relative to control; conditions: 786-0, 48 h, read-out: Activity
[13] = test system: TK-10; assay: Growth inhibition of human TK10 cells incubated for 48 hrs by sulforhodamine B assay; conditions: TK-10, 48 h
[14] = test system: NCI-H23; assay: Growth inhibition of human NCI-H23 cells incubated for 48 hrs by sulforhodamine B assay; conditions: NCI-H23, 48 h
[15] = test system: NCI-H322M; assay: Growth inhibition of human NCI-H322M cells assessed as cell growth at 10^-5 M incubated for 48 hrs by sulforhodamine B assay relative to control; conditions: read-out: Activity
[16] = test system: SR; assay: Growth inhibition of human SR cells assessed as cell growth at 10^-6 M incubated for 48 hrs by sulforhodamine B assay relative to control; conditions: read-out: Activity
[17] = test system: SK-MEL-28; assay: Growth inhibition of human SK-MEL-28 cells assessed as cell growth at 10^-8 M incubated for 48 hrs by sulforhodamine B assay relative to control; conditions: SK-MEL-28, 48 h, read-out: Activity
[18] = test system: NCI-H460; assay: Growth inhibition of human NCI-H460 cells assessed as cell growth at 10^-5 M incubated for 48 hrs by sulforhodamine B assay relative to control; conditions: NCI-H460, 48 h, read-out: Activity
[19] = test system: SK-MEL-28; assay: Growth inhibition of human SK-MEL-28 cells assessed as cell growth at 10^-6 M incubated for 48 hrs by sulforhodamine B assay relative to control; conditions: SK-MEL-28, 48 h, read-out: Activity
[20] = test system: A549; assay: Growth inhibition of human A549/ATCC cells assessed as cell growth at 10^-6 M incubated for 48 hrs by sulforhodamine B assay relative to control; conditions: A549, 48 h, read-out: Activity
[21] = test system: OVCAR-5; assay: Growth inhibition of human OVCAR5 cells assessed as cell growth at 10^-8 M incubated for 48 hrs by sulforhodamine B assay relative to control; conditions: OVCAR-5, 48 h, read-out: Activity
[22] = test system: OVCAR-4; assay: Growth inhibition of human OVCAR4 cells assessed as cell growth at 10^-4 M incubated for 48 hrs by sulforhodamine B assay relative to control; conditions: OVCAR-4, 48 h, read-out: Activity
[23] = test system: NCI-H460; assay: Growth inhibition of human NCI-H460 cells assessed as cell growth at 10^-4 M incubated for 48 hrs by sulforhodamine B assay relative to control; conditions: NCI-H460, 48 h, read-out: Activity
[24] = test system: 786-0; assay: Growth inhibition of human 786-0 cells assessed as cell growth at 10^-5 M incubated for 48 hrs by sulforhodamine B assay relative to control; conditions: 786-0, 48 h, read-out: Activity
[25] = test system: MDA-MB-435; assay: Induction of apoptosis in human MDA-MB-435 cells assessed as necrotic cells by propidium iodide/Annexin V staining based flow cytometry (reference value: 0.24%)
[26] = test system: SF-295; assay: Growth inhibition of human SF295 cells assessed as cell growth at 10^-6 M incubated for 48 hrs by sulforhodamine B assay relative to control; conditions: SF-295, 48 h, read-out: Activity
[27] = test system: A549; assay: Growth inhibition of human A549/ATCC cells incubated for 48 hrs by sulforhodamine B assay; conditions: A549, 48 h
[28] = test system: LOX IMVI; assay: Growth inhibition of human LOXIMVI cells assessed as cell growth at 10^-4 M incubated for 48 hrs by sulforhodamine B assay relative to control; conditions: read-out: Activity
[29] = test system: K562; assay: Growth inhibition of human K562 cells assessed as cell growth at 10^-6 M incubated for 48 hrs by sulforhodamine B assay relative to control; conditions: K562, 48 h, read-out: Activity
[30] = test system: CAKI-1; assay: Growth inhibition of human Caki1 cells incubated for 48 hrs by sulforhodamine B assay; conditions: CAKI-1, 48 h
[31] = read-out: LC50 (the source's name)
[32] = read-out: pLC50 (the source's name) (converted)

## CCS/C(Nc1ccccc1)=C(\C#N)C(=O)Nc1ccc(OC)cc1
[1]
  growth at 10 µM: -8%
[2]
  growth at 1 µM: 90%
[3]
  growth at 100 µM: -11%
[4]
  growth at 0.1 µM: 88%
[5]
  growth at 1 µM: 98%
[6]
  growth at 100 µM: 16%
[7]
  growth at 1 µM: 79%
[8]
  growth at 100 µM: 21%
[9]
  growth at 10 µM: 22%
[10]; read-out: GI50
  GI50: 1.96 µM
[10]; [31]
  CC50: 52.9 µM
[10]; read-out: TGI
  TGI: 4.81 µM
[10]; read-out: pGI50 (converted)
  GI50: 1.95 µM
[10]; [32]
  CC50: 52.5 µM
[10]; read-out: pTGI (converted)
  TGI: 4.79 µM
[11]; read-out: GI50
  GI50: 1.39 µM
[11]; [31]
  CC50: > 100 µM
[11]; read-out: TGI
  TGI: 7.51 µM
[11]; read-out: pGI50 (converted)
  GI50: 1.38 µM
[11]; [32]
  CC50: > 100 µM
[11]; read-out: pTGI (converted)
  TGI: 7.59 µM
[12]
  growth at 0.1 µM: 86%
[13]; read-out: GI50
  GI50: 24.3 µM
[13]; [31]
  CC50: > 100 µM
[13]; read-out: TGI
  TGI: > 100 µM
[13]; read-out: pGI50 (converted)
  GI50: 24.5 µM
[13]; [32]
  CC50: > 100 µM
[13]; read-out: pTGI
  TGI: > 100 µM
[14]; read-out: GI50
  GI50: 4.9 µM
[14]; read-out: LC50
  LC50: > 100 µM
[14]; read-out: TGI
  TGI: > 100 µM
[14]; read-out: pGI50 (converted)
  GI50: 4.9 µM
[14]; read-out: pLC50 (converted)
  LC50: > 100 µM
[14]; read-out: pTGI
  TGI: > 100 µM
[15]
  growth at 10 µM: 38%
[16]
  growth at 1 µM: 57%
[17]
  growth at 0.01 µM: 101%
[18]
  growth at 10 µM: 10%
[19]
  growth at 1 µM: 85%
[20]
  growth at 1 µM: 99%
[21]
  growth at 0.01 µM: 104%
[22]
  growth at 100 µM: 29%
[23]
  growth at 100 µM: -9%
[24]
  growth at 10 µM: 30%
[25]
  Activity: 1.63%
[26]
  growth at 1 µM: 82%
[27]; read-out: GI50
  GI50: 5.91 µM
[27]; [31]
  CC50: > 100 µM
[27]; read-out: TGI
  TGI: > 100 µM
[27]; read-out: pGI50 (converted)
  GI50: 5.89 µM
[27]; [32]
  CC50: > 100 µM
[27]; read-out: pTGI
  TGI: > 100 µM
[28]
  growth at 100 µM: 12%
[29]
  growth at 1 µM: 29%
[30]; read-out: GI50
  GI50: 3.39 µM
[30]; [31]
  CC50: > 100 µM
[30]; read-out: TGI
  TGI: > 100 µM
[30]; read-out: pGI50 (converted)
  GI50: 3.39 µM
[30]; [32]
  CC50: > 100 µM
[30]; read-out: pTGI
  TGI: > 100 µM

## CCS/C(Nc1ccccc1)=C(\C#N)C(=O)N/N=C\c1ccc(Cl)cc1Cl
[1]
  growth at 10 µM: -6%
[2]
  growth at 1 µM: 91%
[3]
  growth at 100 µM: 3%
[4]
  growth at 0.1 µM: 90%
[5]
  growth at 1 µM: 101%
[6]
  growth at 100 µM: 41%
[7]
  growth at 1 µM: 79%
[8]
  growth at 100 µM: 36%
[9]
  growth at 10 µM: 28%
[10]; read-out: GI50
  GI50: 2.89 µM
[10]; [31]
  CC50: > 100 µM
[10]; read-out: TGI
  TGI: 20.6 µM
[10]; read-out: pGI50 (converted)
  GI50: 2.88 µM
[10]; [32]
  CC50: > 100 µM
[10]; read-out: pTGI (converted)
  TGI: 20.4 µM
[11]; read-out: GI50
  GI50: 2.6 µM
[11]; [31]
  CC50: > 100 µM
[11]; read-out: TGI
  TGI: 9.19 µM
[11]; read-out: pGI50 (converted)
  GI50: 2.63 µM
[11]; [32]
  CC50: > 100 µM
[11]; read-out: pTGI (converted)
  TGI: 9.12 µM
[12]
  growth at 0.1 µM: 88%
[13]; read-out: GI50
  GI50: 10.2 µM
[13]; [31]
  CC50: > 100 µM
[13]; read-out: TGI
  TGI: > 100 µM
[13]; read-out: pGI50 (converted)
  GI50: 10.2 µM
[13]; [32]
  CC50: > 100 µM
[13]; read-out: pTGI
  TGI: > 100 µM
[14]; read-out: GI50
  GI50: 6.47 µM
[14]; read-out: LC50
  LC50: > 100 µM
[14]; read-out: TGI
  TGI: > 100 µM
[14]; read-out: pGI50 (converted)
  GI50: 6.46 µM
[14]; read-out: pLC50 (converted)
  LC50: > 100 µM
[14]; read-out: pTGI
  TGI: > 100 µM
[15]
  growth at 10 µM: 42%
[16]
  growth at 1 µM: 76%
[17]
  growth at 0.01 µM: 104%
[18]
  growth at 10 µM: 9%
[19]
  growth at 1 µM: 79%
[20]
  growth at 1 µM: 92%
[21]
  growth at 0.01 µM: 105%
[22]
  growth at 100 µM: 9%
[23]
  growth at 100 µM: 6%
[24]
  growth at 10 µM: 23%
[25]
  Activity: 0.89%
[26]
  growth at 1 µM: 80%
[27]; read-out: GI50
  GI50: 4.63 µM
[27]; [31]
  CC50: > 100 µM
[27]; read-out: TGI
  TGI: > 100 µM
[27]; read-out: pGI50 (converted)
  GI50: 4.68 µM
[27]; [32]
  CC50: > 100 µM
[27]; read-out: pTGI
  TGI: > 100 µM
[28]
  growth at 100 µM: 22%
[29]
  growth at 1 µM: 47%
[30]; read-out: GI50
  GI50: 2.39 µM
[30]; [31]
  CC50: > 100 µM
[30]; read-out: TGI
  TGI: > 100 µM
[30]; read-out: pGI50 (converted)
  GI50: 2.4 µM
[30]; [32]
  CC50: > 100 µM
[30]; read-out: pTGI
  TGI: > 100 µM
